The values that follow come from patent US20230094952A1, “Method for Culturing Hematopoietic Stem Cells” (Sumitomo Pharma Co., Ltd., priority 2019, published 2023).

Test [1] has as its system mouse long-term hematopoietic stem cells. Kind of test: Reproducibility and concentration dependence test: 1-week culture of sorted Hoxb5-tri-mCherry mouse long-term hematopoietic stem cells, flow cytometry. It counts as cell-based. The note with it: day 7 of culture, n=2. The essentials:
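Hoxb5-tri-mCherry+ LT-HSCs (Lin−c-Kit+Sca-1+Flk2−CD34−/lo CD150+) were sorted from mouse bone marrow at 10 cells/well into StemSpan SFEM with SCF and TPO. Cells were cultured with compound for 1 week at 37°C, 5% CO2. Flow cytometry then measured KLS and mCherry+ fractions and cell counts.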

Test [2] deals with human CD34-positive fraction. Kind of test: Ex vivo culture of 10000 human CD34-positive cells before transplantation (cell count). Type of test: cell-based. The note with it: 10000 CD34-positive cells cultured 1 week. The protocol:
(§1) Each of artemether and the compound of Example 1-23 was prepared with the cell culture medium at a final concentration of 0.003 μM or 0.01 μM, and added to the above human cells seeded after classification (166 cells were seeded per well) to a final volume of 200 μL/well to act thereon. Thereafter, for each condition, 10000 cells in total of a CD34-positive fraction were cultured in a CO2 incubator under conditions of 37° C. and 5% CO2 for 1 week, and the cell count was determined. Among the cells after culture, 10000 cells, a number equal to the number of cells before culture, were transplanted into an immunocompromised NOG mouse exposed to a lethal dose of radiation. As a comparative sample, 10000 fresh cord blood-derived CD34-positive cells (uncultured) were transplanted. For peripheral blood donor chimerism at each specified time after transplantation, the human CD45-positive cell count and the mouse CD45-positive cell count were determined by using a human-specific CD45 antibody and a mouse-specific CD45 antibody, and the peripheral blood donor chimerism was represented as the proportion of human CD45-positive cells to the total of human CD45-positive cells and mouse CD45-positive cells (chimerism rate).

The subject of test [3] is human CD34-positive cells transplanted into NOG mouse. In words: In vivo engraftment test with human cells in irradiated NOG mouse (peripheral blood donor chimerism). Conditions: 10000 cells transplanted. The protocol:
as §1

For the molecule `C[C@H]1[C@H](c2ccco2)O[C@@H]2O[C@@]3(C)CC[C@H]4[C@H](C)CC[C@@H]1[C@@]24OO3` [Example 1-7, (3R,5aS,6R,8aS,9R,10R,12R,12aR)-10-(Furan-2-yl)-3,6,9-trimethyldecahydro-12H-3,12-epoxypyrano[4,3-j][1,2]benzodioxepine], the KLS-positive rate is 26.9% in test [1] (Table 4, compound 0.1 μM); 19.6% in test [1] (Table 4, compound 0.3 μM); 36.1% in test [1] (Table 4, compound 1 μM); 0.0% in test [1] (Table 4, compound 3 μM); 0.0% in test [1] (Table 4, compound 10 μM). The Viable cell count in test [1] (Table 4, compound 0.1 μM) was 225.0 cell; in test [1] (Table 4, compound 0.3 μM), 269.0 cell; in test [1] (Table 4, compound 1 μM), 73.0 cell; in test [1] (Table 4, compound 3 μM) it was 0.0 cell; in test [1] (Table 4, compound 10 μM) it was 0.0 cell. Further, the mCherry-positive rate in test [1] (Table 4, compound 0.1 μM) was 42.9%; in test [1] (Table 4, compound 0.3 μM), 62.2%; in test [1] (Table 4, compound 1 μM), 96.7%; in test [1] (Table 4, compound 3 μM) it was 0.0%; in test [1] (Table 4, compound 10 μM), 0.0%.

As for `C[C@H]1[C@H](C(N)=O)O[C@@H]2O[C@@]3(C)CC[C@H]4[C@H](C)CC[C@@H]1[C@@]24OO3` [Example 1-16, (3R,5aS,6R,8aS,9R,10R,12R,12aR)-3,6,9-Trimethyldecahydro-12H-3,12-epoxypyrano[4,3-j][1,2]benzodioxepine-10-carboxamide], the KLS-positive rate in test [1] (Table 4, compound 0.1 μM) is on record as 13.3%; in test [1] (Table 4, compound 0.3 μM), 11.6%; in test [1] (Table 4, compound 1 μM), 33.4%; in test [1] (Table 4, compound 3 μM), 9.2%; in test [1] (Table 4, compound 10 μM), 52.6%. Besides, the Viable cell count in test [1] (Table 4, compound 0.1 μM) is listed as 504.5 cell; in test [1] (Table 4, compound 0.3 μM), 388.5 cell; in test [1] (Table 4, compound 1 μM), 310.0 cell; in test [1] (Table 4, compound 3 μM) it was 182.5 cell; in test [1] (Table 4, compound 10 μM), 29.0 cell. For the same molecule, the mCherry-positive rate in test [1] (Table 4, compound 0.1 μM) worked out at 6.8%; in test [1] (Table 4, compound 0.3 μM) it was 29.2%; in test [1] (Table 4, compound 1 μM), 68.2%; in test [1] (Table 4, compound 3 μM), 92.4%; in test [1] (Table 4, compound 10 μM), 99.0%.

As to `COCCO[C@H]1O[C@@H]2O[C@@]3(C)CC[C@H]4[C@H](C)CC[C@@H]([C@H]1C)[C@@]24OO3` [Example 1-23, (3R,5aS,6R,8aS,9R,10S,12R,12aR)-10-(2-methoxyethoxy)-3,6,9-trimethyldecahydro-12H-3,12-epoxypyrano[4,3-j][1,2]benzodioxepine], the KLS-positive rate is recorded as 12.4% in test [1] (Table 4, compound 0.1 μM); 15.4% in test [1] (Table 4, compound 0.3 μM); 5.3% in test [1] (Table 4, compound 1 μM); 23.2% in test [1] (Table 4, compound 3 μM); 42.3% in test [1] (Table 4, compound 10 μM). Besides, the Viable cell count in test [1] (Table 4, compound 0.1 μM) came out at 712.5 cell; in test [1] (Table 4, compound 0.3 μM), 509.0 cell; in test [1] (Table 4, compound 1 μM) it was 729.0 cell; in test [1] (Table 4, compound 3 μM), 252.0 cell; in test [1] (Table 4, compound 10 μM) it was 63.5 cell; in test [2] (compound 0.01 μM), 20071 cell. Besides, the mCherry-positive rate in test [1] (Table 4, compound 0.1 μM) came to 17.9%; in test [1] (Table 4, compound 0.3 μM), 46.5%; in test [1] (Table 4, compound 1 μM), 72.7%; in test [1] (Table 4, compound 3 μM), 97.3%; in test [1] (Table 4, compound 10 μM), 100.0%. Also, the Donor chimerism in test [3] (cells cultured with compound 0.01 μM, 1 month after transplantation) amounted to 0.299 ± 0.049%; in test [3] (cells cultured with compound 0.01 μM, 2 months after transplantation) it was 0.748 ± 0.585%.

With `CO[C@H]1O[C@@H]2O[C@@]3(C)CC[C@H]4[C@H](C)CC[C@@H]([C@H]1C)[C@@]24OO3` [Example 1-30, artemether, reference compound], the KLS-positive rate in test [1] (Table 3, compound 0.1 μM) is on record as 50.25%; in test [1] (Table 3, compound 0.3 μM), 22.05%; in test [1] (Table 3, compound 1 μM), 21.4%; in test [1] (Table 3, compound 3 μM) it was 50.3%; in test [1] (Table 3, compound 10 μM), 65.9%; in test [1] (Table 4, compound 0.1 μM), 35.3%. In addition, the KLS-positive rate in test [1] (Table 4, compound 0.3 μM) was found to be 38.4%; in test [1] (Table 4, compound 1 μM) it was 40.1%; in test [1] (Table 4, compound 3 μM) it was 57.4%; in test [1] (Table 4, compound 10 μM) it was 71.4%. The Viable cell count in test [1] (Table 3, compound 0.1 μM) was found to be 1109 cell; in test [1] (Table 3, compound 0.3 μM) it was 2632 cell; in test [1] (Table 3, compound 1 μM) it was 1170.5 cell; in test [1] (Table 3, compound 3 μM), 115 cell; in test [1] (Table 3, compound 10 μM), 108.5 cell; in test [1] (Table 4, compound 0.1 μM), 238.0 cell. Besides, the Viable cell count in test [1] (Table 4, compound 0.3 μM) was determined as 184.0 cell; in test [1] (Table 4, compound 1 μM), 135.5 cell; in test [1] (Table 4, compound 3 μM), 44.5 cell; in test [1] (Table 4, compound 10 μM) it was 65.0 cell; in test [2] (compound 0.003 μM) it was 95954 cell. Besides, the mCherry-positive rate in test [1] (Table 3, compound 0.1 μM) was 67.2%; in test [1] (Table 3, compound 0.3 μM) it was 36.85%; in test [1] (Table 3, compound 1 μM), 57.85%; in test [1] (Table 3, compound 3 μM), 98.05%; in test [1] (Table 3, compound 10 μM), 94.45%; in test [1] (Table 4, compound 0.1 μM) it was 71.2%. Moreover, the mCherry-positive rate in test [1] (Table 4, compound 0.3 μM) came to 100.0%; in test [1] (Table 4, compound 1 μM) it was 99.0%; in test [1] (Table 4, compound 3 μM), 100.0%; in test [1] (Table 4, compound 10 μM) it was 98.2%. Further, the Donor chimerism turned out to be 0.041 ± 0.022% in test [3] (cells cultured with compound 0.003 μM, 1 month after transplantation); 0.605 ± 0.95% in test [3] (cells cultured with compound 0.003 μM, 2 months after transplantation); 2.108 ± 2.479% in test [3] (cells cultured with compound 0.003 μM, 3 months after transplantation).
